# Patent USH1923H, “Herbicidal (oxaalkyl) phenyl-substituted heterocycles” (FMC Corporation, priority 1998, dated 2000)
# What was measured:
# [1] = tested on: johnsongrass; experiment: postemergence herbicidal activity on johnsongrass; format: in vivo; details: Sorghum halepense, post-emergence, 0.3 Kg/Ha, after 12-17 days, read-out: POSTEMERGENCE HERBICIDAL ACTIVITY (% CONTROL) SORHA
# Experimental: (§1) The (oxaalkyl)phenyl-substituted heterocycles of this invention were tested for pre- and postemergence herbicidal activity using a variety of crops and weeds. The test plants included soybean (Glycine max var. Winchester),field corn (Zea mays var. Pioneer 3732), wheat (Triticum aestivum var. Lew), morningglory (Ipomea lacunosa or Ipomea hederacea), […] (Abutilon theophrasti), green foxtail (Setaria viridis), Johnsongrass (Sorghum halepense), blackgrass (Aloepecurus myosuroides), common chickweed (Stellaria media), and common cocklebur (Xanthium strumarium L.).
# (§2) For preemergence testing, two disposable fiber flats (8 cm×15 cm×25 cm) for each rate of application of each candidate herbicide were filled to an approximate depth of 6.5 cm with steam-sterilized sandy loam soil. The soil was leveled and impressed with a template to provide five evenly spaced furrows 13 cm long and 0.5 cm deep in each flat. Seeds of soybean, wheat, corn, green foxtail, and johnsongrass were planted in the furrows of the first flat, and seeds of velvetleaf, morningglory, common chickweed, cocklebur, and blackgrass were planted in the furrows of the second flat. The five-row template was employed to firmly press the seeds into place. A topping soil of equal portions of sand and sandy loam soil was placed uniformly on top of each flat to a depth of approximately 0.5 cm. Flats for postemergence testing were prepared in the same manner except that they were planted 9-14 days prior to the preemergence flats and were placed in a greenhouse and watered, thus allowing the seeds to germinate and the foliage to develop.
# (§3) In both pre- and postemergence tests, a stock solution of the candidate herbicide was prepared by dissolving 0.27 g of the compound in 20 mL of water/acetone (50/50) containing 0.5% v/v sorbitan monolaurate. For an application rate of 3000 g/ha of herbicide a 10 mL portion of the stock solution was diluted with water/acetone (50/50) to 45 mL.
# (§4) The preemergence flats were initially subjected to a light water spray. The four flats were placed two by two along a conveyor belt (i.e., the two preemergence followed by the two postemergence flats). The conveyor belt fed under a spray nozzle mounted about ten inches above the postemergent foliage. The preemergent flats were elevated on the belt so that the soil surface was at the same level below the spray nozzle as the foliage canopy of the postemergent plants. The spray of herbicidal solution was commenced and once stabilized, the flats were passed under the spray at a speed to receive a coverage equivalent of 1000 L/ha. At this coverage the application rates are those shown in the above table for the individual herbicidal solutions. The preemergence flats were watered immediately thereafter, placed in the greenhouse and watered regularly at the soil surface. The postemergence flats were immediately placed in the green-house and not watered until 24 hours after treatment with the test solution. Thereafter they were regularly watered at ground level. After 12-17 days the plants were examined and the phytotoxicity data were recorded.
# (§5) Phytotoxicity data were taken as percent control. Percent control was by a method similar to the 0 to 1 00 rating system disclosed in "Research Methods in Weed Science," 2nd ed., B. Truelove, Ed.; Southern Weed Science Society; Auburn University, Auburn, Ala., 1977.
# [2] = tested on: wheat; experiment: postemergence herbicidal activity on wheat; format: in vivo, Triticum aestivum var. Lew; details: Triticum aestivum, post-emergence, 0.3 Kg/Ha, after 12-17 days, read-out: POSTEMERGENCE HERBICIDAL ACTIVITY (% CONTROL) WHT
# Experimental: as §1, §2, §3, §4, §5
# [3] = tested on: velvetleaf; experiment: postemergence herbicidal activity on velvetleaf; format: in vivo; details: Abutilon theophrasti, post-emergence, 0.3 Kg/Ha, after 12-17 days, read-out: POSTEMERGENCE HERBICIDAL ACTIVITY (% CONTROL) ABUTH
# Experimental: as §1, §2, §3, §4, §5
# [4] = tested on: corn; experiment: preemergence herbicidal activity on corn; format: in vivo, Zea mays var. Pioneer 3732; details: Zea mays, pre-emergence, 0.3 Kg/Ha, after 12-17 days, read-out: PREEMERGENCE HERBICIDAL ACTIVITY (% CONTROL) CRN
# Experimental: as §1, §2, §3, §4, §5
# [5] = tested on: soybean; experiment: preemergence herbicidal activity on soybean; format: in vivo, Glycine max var. Winchester; details: Glycine max, pre-emergence, 0.3 Kg/Ha, after 12-17 days, read-out: PREEMERGENCE HERBICIDAL ACTIVITY (% CONTROL) SOY
# Experimental: as §1, §2, §3, §4, §5
# [6] = tested on: cocklebur; experiment: postemergence herbicidal activity on cocklebur; format: in vivo, Xanthium strumarium L.; details: Xanthium strumarium, post-emergence, 0.3 Kg/Ha, after 12-17 days, read-out: POSTEMERGENCE HERBICIDAL ACTIVITY (% CONTROL) XANPE
# Experimental: as §1, §2, §3, §4, §5
# [7] = tested on: cocklebur; experiment: preemergence herbicidal activity on cocklebur; format: in vivo, Xanthium strumarium L.; details: Xanthium strumarium, pre-emergence, 0.3 Kg/Ha, after 12-17 days, read-out: PREEMERGENCE HERBICIDAL ACTIVITY (% CONTROL) XANPE
# Experimental: as §1, §2, §3, §4, §5
# [8] = tested on: morningglory; experiment: preemergence herbicidal activity on morningglory; format: in vivo, Ipomea lacunosa or Ipomea hederacea; details: Ipomoea, pre-emergence, 0.3 Kg/Ha, after 12-17 days, read-out: PREEMERGENCE HERBICIDAL ACTIVITY (% CONTROL) IPOSS
# Experimental: as §1, §2, §3, §4, §5
# [9] = tested on: morningglory; experiment: postemergence herbicidal activity on morningglory; format: in vivo, Ipomea lacunosa or Ipomea hederacea; details: Ipomoea, post-emergence, 0.3 Kg/Ha, after 12-17 days, read-out: POSTEMERGENCE HERBICIDAL ACTIVITY (% CONTROL) IPOSS
# Experimental: as §1, §2, §3, §4, §5
# [10] = tested on: johnsongrass; experiment: preemergence herbicidal activity on johnsongrass; format: in vivo; details: Sorghum halepense, pre-emergence, 0.3 Kg/Ha, after 12-17 days, read-out: PREEMERGENCE HERBICIDAL ACTIVITY (% CONTROL) SORHA
# Experimental: as §1, §2, §3, §4, §5
# [11] = tested on: soybean; experiment: postemergence herbicidal activity on soybean; format: in vivo, Glycine max var. Winchester; details: Glycine max, post-emergence, 0.3 Kg/Ha, after 12-17 days, read-out: POSTEMERGENCE HERBICIDAL ACTIVITY (% CONTROL) SOY
# Experimental: as §1, §2, §3, §4, §5
# [12] = tested on: green foxtail; experiment: postemergence herbicidal activity on green foxtail; format: in vivo; details: Setaria viridis, post-emergence, 0.3 Kg/Ha, after 12-17 days, read-out: POSTEMERGENCE HERBICIDAL ACTIVITY (% CONTROL) SETVI
# Experimental: as §1, §2, §3, §4, §5
# [13] = tested on: chickweed; experiment: preemergence herbicidal activity on chickweed; format: in vivo; details: Stellaria media, pre-emergence, 0.3 Kg/Ha, after 12-17 days, read-out: PREEMERGENCE HERBICIDAL ACTIVITY (% CONTROL) STEME
# Experimental: as §1, §2, §3, §4, §5
# [14] = tested on: wheat; experiment: preemergence herbicidal activity on wheat; format: in vivo, Triticum aestivum var. Lew; details: Triticum aestivum, pre-emergence, 0.3 Kg/Ha, after 12-17 days, read-out: PREEMERGENCE HERBICIDAL ACTIVITY (% CONTROL) WHT
# Experimental: as §1, §2, §3, §4, §5
# [15] = tested on: blackgrass; experiment: postemergence herbicidal activity on blackgrass; format: in vivo, Aloepecurus myosuroides; details: Alopecurus myosuroides, post-emergence, 0.3 Kg/Ha, after 12-17 days, read-out: POSTEMERGENCE HERBICIDAL ACTIVITY (% CONTROL) ALOMY
# Experimental: as §1, §2, §3, §4, §5
# [16] = tested on: corn; experiment: postemergence herbicidal activity on corn; format: in vivo, Zea mays var. Pioneer 3732; details: Zea mays, post-emergence, 0.3 Kg/Ha, after 12-17 days, read-out: POSTEMERGENCE HERBICIDAL ACTIVITY (% CONTROL) CRN
# Experimental: as §1, §2, §3, §4, §5
# [17] = tested on: green foxtail; experiment: preemergence herbicidal activity on green foxtail; format: in vivo; details: Setaria viridis, pre-emergence, 0.3 Kg/Ha, after 12-17 days, read-out: PREEMERGENCE HERBICIDAL ACTIVITY (% CONTROL) SETVI
# Experimental: as §1, §2, §3, §4, §5
# [18] = tested on: chickweed; experiment: postemergence herbicidal activity on chickweed; format: in vivo; details: Stellaria media, post-emergence, 0.3 Kg/Ha, after 12-17 days, read-out: POSTEMERGENCE HERBICIDAL ACTIVITY (% CONTROL) STEME
# Experimental: as §1, §2, §3, §4, §5
# [19] = tested on: velvetleaf; experiment: preemergence herbicidal activity on velvetleaf; format: in vivo; details: Abutilon theophrasti, pre-emergence, 0.3 Kg/Ha, after 12-17 days, read-out: PREEMERGENCE HERBICIDAL ACTIVITY (% CONTROL) ABUTH
# Experimental: as §1, §2, §3, §4, §5
# [20] = tested on: blackgrass; experiment: preemergence herbicidal activity on blackgrass; format: in vivo, Aloepecurus myosuroides; details: Alopecurus myosuroides, pre-emergence, 0.3 Kg/Ha, after 12-17 days, read-out: PREEMERGENCE HERBICIDAL ACTIVITY (% CONTROL) ALOMY
# Experimental: as §1, §2, §3, §4, §5
SMILES,activity at 300 g/ha [1] [%],activity at 300 g/ha [2] [%],activity at 300 g/ha [3] [%],activity at 300 g/ha [4] [%],activity at 300 g/ha [5] [%],activity at 300 g/ha [6] [%],activity at 300 g/ha [7] [%],activity at 300 g/ha [8] [%],activity at 300 g/ha [9] [%],activity at 300 g/ha [10] [%],activity at 300 g/ha [11] [%],activity at 300 g/ha [12] [%],activity at 300 g/ha [13] [%],activity at 300 g/ha [14] [%],activity at 300 g/ha [15] [%],activity at 300 g/ha [16] [%],activity at 300 g/ha [17] [%],activity at 300 g/ha [18] [%],activity at 300 g/ha [19] [%],activity at 300 g/ha [20] [%]
CC(=O)OC(C)(C)C(Cl)Cc1cc(-n2nc(C)n(C(F)F)c2=O)c(F)cc1Cl (stereo not drawn) [Compound 17],100,50,100,85,70,60,80,100,100,100,80,100,95,50,80,90,80,100,100,
CC(=O)OC(C)(C)C(Cl)Cc1cc(-c2nn(C)c(OC(F)F)c2Cl)c(F)cc1Cl (stereo not drawn) [Compound 18],80,40,100,20,70,90,60,100,100,80,80,100,100,20,80,75,100,100,100,
Cc1nn(-c2cc(CC(Cl)CO)c(Cl)cc2F)c(=O)n1C(F)F (stereo not drawn) [Compound 24],80,30,100,70,30,100,95,100,100,65,80,80,,50,30,80,100,10,100,10
